{"source": "paper PMC7838189", "about": "“Natural podophyllotoxin analog 4DPG attenuates EMT and colorectal cancer progression via activation of checkpoint kinase 2” (Cell Death Discovery, 2021)", "system": "HCT-116/5-FU-R cells", "experiment": "Matrigel invasion assay", "format": "cell-based", "details": "SiChk2 and PV1019 pre-treated conditions, 48 h", "from_the_text": "To examine whether 4DPG-mediated repression of Vimentin and invasiveness is a Chk2-dependent process, we performed genetic silencing of endogenous Chk2 in the 5-FU-R cells using target-specific SiRNAs.\nFig. 3 Chk2-dependent role of 4DPG in modulating p53 and repressing Vimentin expression in 5-FU-R cells. A Immunocytochemistry results showing the Vimentin expression level in SW-620/5-FU-R cells treated/transfected with scramble, SiChk2, scramble plus 4DPG, SiChk2 plus 4DPG, vehicle, PV1019, 4DPG, and PV1019 plus 4DPG for 48 h. Scale bars: 50 µm. […] C Matrigel invasion assay results showing invaded HCT-116/5-FU-R and SW-620/5-FU-R cells following 48 h of transient transfection with GFP and GFP-Chk2 plasmid construct. Scale bars: 50 µm. D Quantification of the number of invaded cells per field from the above experimental conditions. n = 3, error bars, mean ± SD; *P < 0.05, ***P < 0.001. E Immunocytochemistry results displaying Vimentin expression levels in HCT-116/5-FU-R and SW-620/5-FU-R cells after 48 h of transient transfection with pCDNA3 and/or HA-Chk2 plasmid construct. Scale bars: 50 µm. F Immunoprecipitation with Vimentin or p53 followed by western blotting analysis of p53 in SW-620/5-FU-R cells treated with vehicle and/or 4DPG (300 nM) for 48 h. […]"}
{"compound": "COc1cc([C@@H]2c3cc4c(cc3C[C@H]3COC(=O)[C@@H]32)OCO4)cc(OC)c1O[C@@H]1O[C@H](CO)[C@@H](O)[C@H](O)[C@H]1O", "note": "[4DPG, 4′-demethyl-deoxypodophyllotoxin glucoside]", "values": [{"measurement": "effect of 4DPG to block invasion abilities", "result": "distinctly reduced"}]}
